From patent publication US20240350660A1, “Compositions and Methods for Increasing Bioavailability Using Cyclodextrin Modification” (priority 2021, published 2024)

What was measured:
[1] = tested on: mouse model of diabetes (streptozotocin-induced); test: Streptozotocin-induced diabetes mouse model, blood glucose 4 hours post treatment; type: in vivo, mice (C57BL/6)
Protocol: Eight week old male C57BL/6 strain of mice were used. The mice were fed on standard diet and water ad libitum. Diabetes was induced by intraperitoneal injection of 60 mg/kg of a freshly prepared streptozotocin (STZ) dissolved in 0.1 M cold citrate buffer at a pH of 4.5. Body weight, food, and fluid intake were monitored daily. Induction was continued for 7 consecutive days until chronic polydipsia and polyuria was established. Post-prandial blood glucose levels were measured by blood glucose strips, and mice with levels higher than 400 mg/dL were defined as chronically diabetic and chosen for experiments. Test animals were treated with product by oral gavage. For a given product, n=6 animals were treated. Blood samples for whole blood glucose were obtained from the tail tip 4 hours post treatment, and blood glucose levels were measured by Roche blood glucose strips. Means and standard error of the means were calculated. Differences in mean post-prandial blood glucose 4 hours post treatment of animals treated with product and untreated control […] diabetic animals (n=6) were calculated. Relative clinical effects of the products tested were determined by comparing the difference in blood glucose of treated relative to untreated controls.

SARS-COV-2 [2] = test: SARS-COV-2 replication in Vero E6 cells in vitro (viral load by RT-PCR); type: cell-based; details: Severe acute respiratory syndrome coronavirus 2, Vero C1008; FIG. 3; cells treated at 1 μM final concentration; complexes at 1:1 molar ratio; read-out: Inhibition of SARS-COV-2 replication over untreated
SARS-COV-2 [3] = test: Human ACE2 transgenic COVID-19 mouse model (body weight, survival); type: in vivo, hACE2 transgenic mice; details: Daily
[4] = 25 mg/kg oral gavage, n=6, glucose levels given in mg/dL
[5] = 200 mg/kg, Pretreatment to Day 7

COc1cc(/C=C/C(=O)CC(=O)/C=C/c2ccc(O)c(OC)c2)ccc1O [Unconjugated Curcumin, curcumin]
Difference in 4 h Blood Glucose vs. Untreated ([1]; 5 mg/kg oral gavage, n=6): 29.8 | Difference in 4 h Blood Glucose vs. Untreated [1, 4]: 60.22

C[C@@H]1O[C@@H](OC[C@H]2O[C@@H](Oc3c(-c4ccc(O)c(O)c4)oc4cc(O)cc(O)c4c3=O)[C@H](O)[C@@H](O)[C@@H]2O)[C@H](O)[C@H](O)[C@H]1O [rutin]
inhibition at 1 µM (SARS-COV-2 [2]): ~25%

OC[C@H]1O[C@@H]2O[C@H]3[C@H](O)[C@@H](O)[C@@H](O[C@H]4[C@H](O)[C@@H](O)[C@@H](O[C@H]5[C@H](O)[C@@H](O)[C@@H](O[C@H]6[C@H](O)[C@@H](O)[C@@H](O[C@H]7[C@H](O)[C@@H](O)[C@@H](O[C@H]8[C@H](O)[C@@H](O)[C@@H](O[C@H]1[C@H](O)[C@H]2O)O[C@@H]8CO)O[C@@H]7CO)O[C@@H]6CO)O[C@@H]5CO)O[C@@H]4CO)O[C@@H]3CO [Betacyclodextrin alone, beta-cyclodextrin]
Difference in 4 h Blood Glucose vs. Untreated [1, 4]: 35.46

CN(C)C(=N)N=C(N)N [Metformin]
Difference in 4 h Blood Glucose vs. Untreated ([1]; 200 mg/kg oral): 173.9 | Difference in 4 h Blood Glucose vs. Untreated ([1]; 250 mg/kg oral gavage, n=6): 181.7

Cc1cnc(C(=O)NCCc2ccc(S(=O)(=O)NC(=O)NC3CCCCC3)cc2)cn1 [Glipizide]
Difference in 4 h Blood Glucose vs. Untreated ([1]; 5 mg/kg oral gavage, n=6): 198.0

CCC(CC)COC(=O)[C@H](C)N[P@](=O)(OC[C@H]1O[C@@](C#N)(c2ccc3c(N)ncnn23)[C@H](O)[C@@H]1O)Oc1ccccc1 [Remdesivir]
Survival (SARS-COV-2 [3]; 50 mg/kg, Day 1 post-treatment to 7): 100% | Survival (SARS-COV-2 [3]; [5]): 100%

O=c1c(O)c(-c2ccc(O)c(O)c2)oc2cc(O)cc(O)c12 [Quercitin]
Survival (SARS-COV-2 [3]; 66 mg/kg, Pretreatment to Day 7): 80% | Survival (SARS-COV-2 [3]; [5]): 100%

Insulin
Difference in 4 h Blood Glucose vs. Untreated ([1]; 0.5 IU sc): 203.2 | Difference in 4 h Blood Glucose vs. Untreated ([1]; 1 IU sc): 236.2
